Source: PMC9964505 (International Journal of Molecular Sciences, 2023)

Assays:
incised mice = test system: incised mice; design: method as in PMID 34039739; conditions: hindpaw administration; cited from earlier work
[1] = test system: partial restraint stress-induced colonic hypersensitivity in female rats; test: colonic distension test in partial restraint stress model; conditions: for percentual anti-hypersensitivity activity on colonic hypersensitivity: mean of three trials
Protocol: Animals were placed for 2 h in a plexiglas restraint cylinder in order to restrict, but not impede, body movements. Naïve control animals were allowed to move freely in their cages. Immediately after completion of the 2 h restraint stress period, 3 consecutive determinations of colonic sensitivity were performed every 20 min.
Colonic sensitivity was assessed by measuring the intra-colonic pressure required to induce a pain-related behavioral response during colonic distension (Electronic barostat, Distender Series IIRTM). Sedation is considered as a confounding factor in the assessment of pain, and therefore all experiments were performed in non-sedated conscious rats. In order to reduce bias, all experiments were performed by the same dedicated personnel within a study. The visceral pressure range was studied from 5 to 75 mmHg, but pain responses were typically evident at 30–35 mmHg. Briefly, a 5 cm balloon was gently inserted into the colon of conscious rats at 7 to 10 cm from the anus, and the catheter was taped to the base of the tail. After a 30 min acclimation period with the inserted balloon, colonic pressure was increased by 5 mmHg steps every 30 s, from 5 to 75 mmHg (cut-off), until pain-related elevation of the hind part of the rat body and/or a clearly visible abdominal contraction corresponding to severe cramp were evident.
The formula: ((Distension thresholdTNBS/PRS + veh − Distension thresholdnaïve + veh)/(Distension thresholdnaïve + veh)) × 100, was used to calculate percentual variation due to trinitrobenzene sulfonic acid administration or partial restraint stress, as compared to naïve rats. […] Statistical analyses were conducted using GraphPad Prism (version 8.4.2) and p < 0.05 was considered to represent a significant difference.

[2] = test system: CCI-induced mechanical hypersensitivity in male rats; test: paw pressure test in chronic constriction injury (CCI) model
Protocol: Prior to behavioral studies, the rats were habituated to the experimental conditions and handling. The common sciatic nerve of the right hindpaw was injured at the level of the middle of the thigh. Proximal to the sciatic trifurcation, four loose ligatures were tied around it with about 1 mm spacing using Mersilk sutures in anaesthetized rats (Xylazine 10 mg/kg i.p., Ketamine 60 mg/kg i.p.). Great care was taken to tie the ligatures, such that the diameter of the nerve was seen to be just barely constricted. Sham animals received only a skin and muscle incision. Fourteen days after the surgery, individual baseline values of the withdrawal threshold evoked by squeezing of the hind limb between a flat surface and a blunt pointer with an analgesimeter (Ugo Basile, Gemonio, Italy) were determined on both hindpaws while the animal was gently held in a restrained position. The analgesimeter exerted a steadily increasing force, and the reaction threshold was determined as the pressure (g) required to elicit paw withdrawal and/or vocalization. […] Dosing and testing were performed in a random order.
Statistical analyses were conducted using GraphPad Prism (version 8.4.2) and p < 0.05 was considered to represent a significant difference.

[3] = plasma protein binding, rapid equilibrium dialysis; type: in vitro ADME; conditions: rat plasma, 1 µg/mL, 37 °C, 4 h
Protocol: Plasma protein binding studies were carried out in male Wistar Hannover rat plasma with heparin as the anticoagulant. All plasma samples were obtained from BioreclamationIVT (Baltimore, MD, USA). A Pierce Rapid Equilibrium Dialysis Device (RED) was used for the experiments. Aliquots of plasma (300 µL) containing the compound of interest (1 µg/mL) and phosphate-buffered saline (PBS) (500 µL) were added to the sample chamber and buffer chamber, respectively, on the RED device. The loaded dialysis plate was sealed and placed on a pre-heated shaker, and incubated at physiological temperature (+37 °C) for 4 h. After the incubation, aliquots of 50 µL for the donor and 200 µL for the receiver were removed from the chambers and placed into a 96-well plate. Plasma (50 µL) was added to the wells containing the receiver samples and 200 µL of PBS was added to the wells containing the donor samples. Two volumes of ACN were added to each well, and the samples were mixed and centrifuged, after which the supernatant was analysed by LC-MS/MS.

[4] = terminal plasma and brain exposure in female rats (PRS study); type: in vivo, rat; conditions: 3-30 mg/kg p.o.
Protocol: Briefly, total blood was collected by intra-cardiac puncture on anaesthetized (3% Isoflurane, 3 L/min) animals into pre-cooled K3EDTA tubes. […] At least 100–200 µL of plasma was gently collected and immediately frozen at −80 °C. After decapitation, the whole brain was collected, rinsed with fresh ice-cold 0.9% NaCl solution, and thereafter frozen in dry ice and stored in a polypropylene tube at −80 °C.

[5] = plasma and brain exposure in male rats (CCI study and satellite rats); type: in vivo, rat; conditions: independent of dose or sampling time
Protocol: Terminal samples for concentration analyses were also collected from HC-070-treated sciatic nerve-injured male animals at the end of the paw pressure test, and from female rats at the end of the last colonic distension test in the partial restraint stress (PRS) study. Briefly, total blood was collected by intra-cardiac puncture on anaesthetized (3% Isoflurane, 3 L/min) animals into pre-cooled K3EDTA tubes. Samples were gently mixed, placed on ice, and centrifuged at the latest within 30 min after collection at 1600× g or 1710× g for 10 min at 4 °C. At least 100–200 µL of plasma was gently collected and immediately frozen at −80 °C. After decapitation, the whole brain was collected, rinsed with fresh ice-cold 0.9% NaCl solution, and thereafter frozen in dry ice and stored in a polypropylene tube at −80 °C.

mice = conditions: mouse, in vivo, po; cited from earlier work
[6] = test system: trinitrobenzene sulfonic acid-induced colonic hypersensitivity in male rats; test: colonic distension test in TNBS-induced colonic hypersensitivity model; type: in vivo, rat; conditions: for mean percentual colonic anti-hypersensitivity activity: mean of four trials (30, 50, 70, 120 min)
[7] = brain homogenate binding, rapid equilibrium dialysis; type: in vitro ADME, rat; conditions: as fraction
Protocol: The brain homogenate binding study was carried out in male Wistar Hannover brain homogenate, obtained from BioreclamationIVT (Baltimore, MD, USA). Brains were homogenized with two volumes of PBS prior to initiating the experiment. The instrumentation, volume ratios, incubation conditions, and sample preparation were the same as described above for plasma protein binding (brain homogenate used instead of plasma).

[8] = test system: persistent mechanical pain in mouse models; design: method as in PMID 34039739; conditions: hindpaw injection; mouse plantar incision, CFA and paclitaxel models; cited from earlier work
uninjured mice = test system: uninjured mice; design: method as in PMID 34039739; conditions: peripheral dosing; cited from earlier work
[9] = test system: mechanical hypersensitivity in a mouse SNI model; design: method as in PMID 34039739; conditions: intra-plantar injection; cited from earlier work
[10] = test system: mustard oil-induced visceral pain-related behaviors and hindpaw mechanical hypersensitivity; conditions: intraperitoneal, and oral to a lesser extent; cited from earlier work
[11] = test system: rat spared nerve injury model of neuropathic pain; conditions: amygdaloid application; cited from earlier work

Cn1c(=O)n(CCCO)c(=O)c2c1nc(Oc1cccc(Cl)c1)n2Cc1ccc(Cl)cc1 [HC-070]
effect on established postoperative mechanical hypersensitivity (incised mice): alleviated | percentual anti-hypersensitivity activity on colonic hypersensitivity ([1]; 3 mg/kg p.o.): 100% | percentual anti-hypersensitivity activity on colonic hypersensitivity ([1]; 10 mg/kg p.o.): 181% | percentual anti-hypersensitivity activity on colonic hypersensitivity ([1]; 30 mg/kg p.o.): 188% | effect on colonic sensibility after PRS ([1]; oral doses of 3, 10 and 30 mg/kg): dose-dependently restored | reversal percentage of CCI-induced mechanical hypersensitivity, injured paw ([2]; 3 mg/kg p.o., 45 min): 34% | effect on CCI-induced mechanical hypersensitivity (withdrawal threshold, injured paw) ([2]; 10 mg/kg p.o., 75 min): significantly attenuated | reversal percentage of CCI-induced mechanical hypersensitivity, injured paw ([2]; 10 mg/kg p.o., 75 min): 51% | effect on CCI-induced mechanical hypersensitivity (withdrawal threshold, injured paw) ([2]; 30 mg/kg p.o., 45 min): significantly attenuated | reversal percentage of CCI-induced mechanical hypersensitivity, injured paw ([2]; 30 mg/kg p.o., 45 min): 62% | plasma protein binding [3]: 99.5% | KP,uu,BR (partitioning coefficient between unbound brain and plasma exposures) [4]: 0.5–0.8 | KP,uu,BR (partitioning coefficient between unbound brain and plasma exposures) [5]: 0.4–0.6 | effect on locomotor activity (mice): nor did oral HC-070 treatment alter the locomotor activity | effect on TNBS-induced colonic hypersensitivity (colonic distension threshold) ([6]; 3 mg/kg p.o., at 70 and 120 min): significantly and in a dose-dependent manner attenuated | mean percentual colonic anti-hypersensitivity activity ([6]; 3 mg/kg p.o.): 58% | effect on TNBS-induced colonic hypersensitivity (colonic distension threshold) ([6]; 10 mg/kg p.o., all time points (30-120 min)): reversed | mean percentual colonic anti-hypersensitivity activity ([6]; 10 mg/kg p.o.): 99% | effect on TNBS-induced colonic hypersensitivity (colonic distension threshold) ([6]; 30 mg/kg p.o., all time points (30-120 min)): reversed | mean percentual colonic anti-hypersensitivity activity ([6]; 30 mg/kg p.o.): 134% | unbound fraction in rat brain homogenate [7]: 0.001

CN1CC[C@]23c4c5ccc(O)c4O[C@H]2[C@@H](O)C=C[C@H]3[C@H]1C5 [morphine]
effect on PRS-lowered visceral pain threshold ([1]; 1 mg/kg s.c.): significant reversal | percentual anti-hypersensitivity activity on colonic hypersensitivity ([1]; 1 mg/kg s.c.): 272% | effect on mechanical withdrawal threshold of the non-injured control paw ([2]; 3 mg/kg s.c.): statistically significantly increased | effect on sustained CCI-induced mechanical hypersensitivity (reversal) ([2]; 3 mg/kg s.c., first two time points (45, 75 min)): abolished

c1ccc(Cn2c(NCc3ccco3)nc3ccccc32)cc1 [AC1903]
effect on persistent mechanical pain [8]: prevents the persistent mechanical pain | effect on naïve mechanical sensitivity (uninjured mice): did not change | effect on mechanical hypersensitivity [9]: failed to attenuate

Cc1cc(N2CCCCC2)nc2ccccc12 [ML-204]
effect on mustard oil-induced visceral pain-related behaviors and hindpaw mechanical hypersensitivity [10]: dose-dependently attenuated | effect on mechanical hypersensitivity and affective-like spontaneous pain-related behavior [11]: dose-dependent suppression
